Converted amounts (≈) assume the structure as drawn.
How the values were obtained:
[1] = test system: HD-MB03; test: cells; conditions: Homo sapiens, HD-MB03, 72 h
[2] = buffer, pH 7.4, 18 h
[3] = target: T1, Bromodomain-containing protein 2 (Homo sapiens, UniProt P25440); test: Inhibition of BRD2 BD2 (unknown origin) by TR-FRET assay
[4] = test system: MV4-11; test: cells; conditions: Homo sapiens, MV4-11, 72 h
[5] = human, microsomes
[6] = test system: MOLM-13; test: cells; conditions: Homo sapiens, MOLM-13, 72 h
[7] = in vitro; conditions: human, plasma
[8] = target: T1, Bromodomain-containing protein 2; test: Inhibition of BRD2 BD1 (unknown origin) by TR-FRET assay
[9] = in vitro; conditions: human, plasma; remark: listed apart in the source
[10] = in vitro; conditions: human, Caco-2
[11] = cells; conditions: Homo sapiens, NALM16, 72 h
[12] = test system: D283 Med; test: cells; conditions: Homo sapiens, 72 h
[13] = Downregulation of MYC level in human MV4-11 cells at 100 nM measured after 6 hrs by immunoblotting analysis relative to control; format: functional
[14] = Tmax in CD1 mouse at 10 mg/kg, po measured upto 24 hrs by LC-MS/MS method; format: ADME, organism-based; conditions: in vivo
[15] = AUClast in CD1 mouse at 3 mg/kg, po measured upto 24 hrs by LC-MS/MS method; format: ADME, organism-based; design: dose 3 mg/kg, time < 24 hrs, route po; conditions: in vivo
[16] = Half life in CD1 mouse at 1 mg/kg, iv measured upto 24 hrs by LC-MS/MS method; format: ADME, organism-based; conditions: in vivo
[17] = Unbound clearance in CD1 mouse at 1 mg/kg, iv measured upto 24 hrs by LC-MS/MS method; format: ADME, organism-based; conditions: in vivo
[18] = Half life in CD1 mouse at 3 mg/kg, po measured upto 24 hrs by LC-MS/MS method; format: ADME, organism-based; conditions: in vivo
[19] = AUClast in CD1 mouse at 1 mg/kg, iv measured upto 24 hrs by LC-MS/MS method; format: ADME, organism-based; design: time < 24 hrs, dose 1 mg/kg, route iv; conditions: in vivo
[20] = AUClast in CD1 mouse at 10 mg/kg, po measured upto 24 hrs by LC-MS/MS method; format: ADME, organism-based; design: dose 10 mg/kg, time < 24 hrs, route po; conditions: in vivo
[21] = Oral bioavailability in CD1 mouse at 10 mg/kg measured upto 24 hrs by LC-MS/MS method; format: ADME, organism-based; conditions: in vivo
[22] = Half life in CD1 mouse at 10 mg/kg, po measured upto 24 hrs by LC-MS/MS method; format: ADME, organism-based; conditions: in vivo
[23] = Tmax in CD1 mouse at 3 mg/kg, po measured upto 24 hrs by LC-MS/MS method; format: ADME, organism-based; conditions: in vivo
[24] = target: T2, Bromodomain-containing protein 4 (Homo sapiens, UniProt O60885)
[25] = target: T2, Bromodomain-containing protein 4; remark: listed apart in the source
[26] = Downregulation of MYC level in human MV4-11 cells at 1 uM measured after 6 hrs by immunoblotting analysis relative to control; format: functional
[27] = Cmax in CD1 mouse at 3 mg/kg, po measured upto 24 hrs by LC-MS/MS method; format: ADME, organism-based; design: time < 24 hrs, dose 3 mg/kg, route po; conditions: in vivo
[28] = Apparent volume of distribution during terminal phase in CD1 mouse at 1 mg/kg, iv measured upto 24 hrs by LC-MS/MS method; format: ADME, organism-based; conditions: in vivo
[29] = Oral bioavailability in CD1 mouse at 3 mg/kg measured upto 24 hrs by LC-MS/MS method; format: ADME, organism-based; conditions: in vivo
[30] = Unbound clearance in CD1 mouse at 10 mg/kg, po measured upto 24 hrs by LC-MS/MS method; format: ADME, organism-based; conditions: in vivo
[31] = Cmax in CD1 mouse at 1 mg/kg, iv measured upto 24 hrs by LC-MS/MS method; format: ADME, organism-based; design: time < 24 hrs, dose 1 mg/kg, route iv; conditions: in vivo
[32] = Unbound clearance in CD1 mouse at 3 mg/kg, po measured upto 24 hrs by LC-MS/MS method; format: ADME, organism-based; conditions: in vivo
[33] = Cmax in CD1 mouse at 10 mg/kg, po measured upto 24 hrs by LC-MS/MS method; format: ADME, organism-based; design: time < 24 hrs, dose 10 mg/kg, route po; conditions: in vivo

T1 sequence (P25440 whole entry): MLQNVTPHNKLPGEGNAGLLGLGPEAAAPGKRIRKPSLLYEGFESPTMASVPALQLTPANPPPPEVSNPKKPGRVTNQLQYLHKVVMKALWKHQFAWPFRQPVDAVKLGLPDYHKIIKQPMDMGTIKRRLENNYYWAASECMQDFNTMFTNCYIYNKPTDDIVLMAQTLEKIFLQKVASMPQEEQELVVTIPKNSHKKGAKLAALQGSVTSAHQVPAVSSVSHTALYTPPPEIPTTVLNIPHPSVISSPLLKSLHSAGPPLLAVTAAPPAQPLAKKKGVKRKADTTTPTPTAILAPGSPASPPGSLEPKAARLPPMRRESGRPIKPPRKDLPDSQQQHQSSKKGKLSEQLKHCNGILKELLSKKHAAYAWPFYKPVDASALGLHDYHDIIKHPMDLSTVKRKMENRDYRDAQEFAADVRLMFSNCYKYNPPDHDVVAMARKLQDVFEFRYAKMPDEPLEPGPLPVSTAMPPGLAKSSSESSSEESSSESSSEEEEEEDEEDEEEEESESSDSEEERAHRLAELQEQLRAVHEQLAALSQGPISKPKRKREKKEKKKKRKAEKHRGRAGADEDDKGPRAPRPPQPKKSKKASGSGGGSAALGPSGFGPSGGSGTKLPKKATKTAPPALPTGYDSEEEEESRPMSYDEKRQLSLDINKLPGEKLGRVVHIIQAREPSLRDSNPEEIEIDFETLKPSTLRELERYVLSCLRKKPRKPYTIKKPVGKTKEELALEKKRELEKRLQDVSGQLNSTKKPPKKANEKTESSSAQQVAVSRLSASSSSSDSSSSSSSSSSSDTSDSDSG

Cc1sc2c(c1C)C(c1ccc(Cl)cc1)=N[C@@H](CC(=O)NCc1ccon1)c1nnc(C)n1-2
IC50 [1]: 17 nM | solubility [2]: 56.9 µM (≈ 27.4 µg/mL) | IC50 [3]: 0.1 nM | IC50 [4]: 32 nM | t1/2 [5]: 0.4 h | IC50 [6]: 14 nM | half-life at 48 h [7]: > 100 h | IC50 [8]: 3 nM | fraction unbound [9]: 0.065 | Papp A→B [10]: 15 ×10⁻⁶ cm/s | IC50 [11]: 12 nM | IC50 [12]: 25 nM

Cc1sc2c(c1C)C(c1ccc(Cl)cc1)=N[C@@H](CC(=O)Nc1nncs1)c1nnc(C)n1-2
Activity [13]: 50% | Tmax [14]: 0.5 h | AUClast [15]: 3275.4 ng·h/mL | IC50 [1]: 6 nM | t1/2 [16]: 1.5 h | solubility [2]: 12 µM (≈ 5.81 µg/mL) | CL free [17]: 10.6 mL/min/kg | IC50 [3]: 0.1 nM | IC50 [4]: 20 nM | t1/2 [18]: 3.9 h | t1/2 [5]: 3.2 h | IC50 [6]: 10 nM | AUClast [19]: 1567.1 ng·h/mL | AUClast [20]: 9473 ng·h/mL | F [21]: 60% | t1/2 [22]: 3.9 h | Tmax [23]: 1 h | half-life at 48 h [7]: > 100 h | IC50 [24]: 0.2 nM | IC50 [25]: 6 nM | Activity [26]: 22% | Cmax [27]: 1555.3 ng/mL | Vz/F [28]: 0.8 L/kg | F [29]: 70% | Papp A→B [10]: 6.65 ×10⁻⁶ cm/s | CL free [30]: 17.5 mL/min/kg | IC50 [11]: 3 nM | Cmax [31]: 1930 ng/mL | IC50 [12]: 56 nM | CL free [32]: 15.2 mL/min/kg | Cmax [33]: 3155.6 ng/mL

COC(=O)[C@H](Cc1c[nH]cn1)NC(=O)C[C@@H]1N=C(c2ccc(Cl)cc2)c2c(sc(C)c2C)-n2c(C)nnc21
IC50 [3]: 9 nM | IC50 [4]: 1140 nM | IC50 [6]: 200 nM | IC50 [8]: 32 nM | IC50 [24]: 6 nM | IC50 [25]: 34 nM | IC50 [11]: 791 nM | IC50 [12]: 2930 nM

Cc1sc2c(c1C)C(c1ccc(Cl)cc1)=N[C@@H](CC(=O)NCc1cn(C)cn1)c1nnc(C)n1-2
IC50 [1]: 358 nM | IC50 [3]: 3 nM | IC50 [4]: 143 nM | IC50 [6]: 52 nM | half-life at 48 h [7]: > 100 h | IC50 [8]: 17 nM | IC50 [24]: 0.6 nM | IC50 [25]: 82 nM | IC50 [11]: 93 nM | IC50 [12]: 789 nM

Cc1sc2c(c1C)C(c1ccc(Cl)cc1)=N[C@@H](CC(=O)OC(C)(C)C)c1nnc(C)n1-2
IC50 [1]: 90 nM | t1/2 [5]: 0.4 h | half-life at 48 h [7]: > 100 h | fraction unbound [9]: 0.008 | IC50 [11]: 18 nM | IC50 [12]: 60 nM

Cc1sc2c(c1C)C(c1ccc(Cl)cc1)=N[C@@H](CC(=O)NCc1cn(C)nn1)c1nnc(C)n1-2
IC50 [1]: 40 nM | IC50 [4]: 59 nM | IC50 [6]: 11 nM | half-life at 48 h [7]: > 100 h | IC50 [8]: 639 nM | IC50 [24]: 26 nM | IC50 [25]: 1410 nM | IC50 [11]: 14 nM

Cc1sc2c(c1C)C(c1ccc(Cl)cc1)=N[C@@H](CC(=O)NCc1ncco1)c1nnc(C)n1-2
IC50 [1]: 1 nM | IC50 [3]: 0.1 nM | IC50 [6]: 2 nM | IC50 [8]: 9 nM | IC50 [12]: 18 nM

Cc1sc2c(c1C)C(c1ccc(Cl)cc1)=N[C@@H](CC(=O)Nc1nccs1)c1nnc(C)n1-2
IC50 [1]: 4 nM | IC50 [4]: 40 nM | IC50 [6]: 22 nM | half-life at 48 h [7]: > 100 h | IC50 [8]: 10 nM | IC50 [11]: 6 nM

Cc1sc2c(c1C)C(c1ccc(Cl)cc1)=N[C@@H](CC(=O)NCC(=O)O)c1nnc(C)n1-2
IC50 [1]: 9340 nM | IC50 [3]: 0.3 nM | IC50 [4]: 3060 nM | half-life at 48 h [7]: > 100 h | IC50 [8]: 146 nM | IC50 [24]: 0.4 nM | IC50 [11]: > 8850 nM | IC50 [12]: > 8850 nM

Cc1sc2c(c1C)C(c1ccc(Cl)cc1)=N[C@@H](CC(=O)NCc1ccccn1)c1nnc(C)n1-2
IC50 [1]: 263 nM | IC50 [3]: 0.3 nM | IC50 [4]: 444 nM | IC50 [6]: 8 nM | IC50 [8]: 16 nM | IC50 [11]: 14 nM | IC50 [12]: 228 nM

Cc1sc2c(c1C)C(c1ccc(Cl)cc1)=N[C@@H](CC(=O)NCCO)c1nnc(C)n1-2
IC50 [1]: 42 nM | IC50 [6]: 8 nM | IC50 [11]: 7 nM | IC50 [12]: 413 nM

COC(=O)CNC(=O)C[C@@H]1N=C(c2ccc(Cl)cc2)c2c(sc(C)c2C)-n2c(C)nnc21
IC50 [1]: 359 nM | IC50 [6]: 9 nM | IC50 [11]: 16 nM | IC50 [12]: 337 nM

Cc1sc2c(c1C)C(c1ccc(Cl)cc1)=N[C@@H](CC(=O)NCc1c[nH]nn1)c1nnc(C)n1-2
IC50 [1]: 3 nM | IC50 [4]: 253 nM | IC50 [6]: 3 nM | half-life at 48 h [7]: > 100 h | IC50 [8]: 8 nM | IC50 [24]: 1 nM | IC50 [25]: 79 nM | IC50 [11]: 7 nM | IC50 [12]: 964 nM

Cc1sc2c(c1C)C(c1ccc(Cl)cc1)=N[C@@H](CC(=O)Nc1ccc(O)cc1)c1nnc(C)n1-2 [BIRABRESIB]
solubility [2]: 23.4 µM (≈ 11.5 µg/mL) | IC50 [4]: 22 nM | t1/2 [5]: 1.7 h | IC50 [6]: 11 nM | half-life at 48 h [7]: > 100 h | fraction unbound [9]: 0.027 | Papp A→B [10]: 22.2 ×10⁻⁶ cm/s | IC50 [11]: 14 nM | IC50 [12]: 66 nM

Cc1sc2c(c1C)C(c1ccc(Cl)cc1)=N[C@@H](CC(=O)NCc1ccccc1)c1nnc(C)n1-2
IC50 [1]: 619 nM | IC50 [3]: 0.2 nM | IC50 [6]: 385 nM | half-life at 48 h [7]: > 100 h | IC50 [8]: 21 nM | IC50 [24]: 0.3 nM | IC50 [11]: 452 nM

Cc1sc2c(c1C)C(c1ccc(Cl)cc1)=N[C@@H](CC(=O)NCCc1c[nH]c3ccccc13)c1nnc(C)n1-2
IC50 [1]: 254 nM | IC50 [3]: 50 nM | IC50 [4]: 182 nM | IC50 [6]: 318 nM | IC50 [8]: 252 nM | IC50 [11]: 172 nM

Source: ChEMBL document CHEMBL5346911, “From PROTAC to inhibitor: Structure-guided discovery of potent and orally bioavailable BET inhibitors” (Eur J Med Chem, 2023)
